Measured values as given in patent US8829175B2, “Nucleic acids encoding polyvalent protein complexes” (IBC Pharmaceuticals, Inc., priority 2003, dated 2014).
Values belong to the molecule of their own block, whether it stands above or below them. Starred links: 1 amine or outer side, 2 acyl side, 3 side chain; linkers in the order of their positions; H or OH if unused. Non-standard residues stand in square brackets, D forms with d. Residues, ends and D or L forms follow the SMILES beside them. Groups on a side chain read outwards from the residue. *: point of attachment. DOTA = O=C(O)CN1CCN(CC(=O)O)CCN(CC(=O)*)CCN(CC(=O)O)CC1; NH(2-(imidazol-4-yl)ethyl) = c1ncc(CCN*)[nH]1; Suc = O=C(CCC(=O)[*:2])[*:1]; X1 = NC(=S)NN=CC(=O)*

Assays:
[1] = tested on: GW-39 (CEA positive) tumors; set-up: species or system nude mice; conditions: mouse, in vivo
Description: The utility of BS14HP for tumor pretargeting was evaluated in GW-39 tumor-bearing mice using a bivalent HSG peptide (IMP-241) labeled with ^111In. IMP-241 has a structure of DOTA-Phe-Lys(HSG)-D-Tyr-Lys(HSG)-NH2, where the N-terminal amino group of Phe is linked to a DOTA and the epsilon amino group of each lysine is derivatived with an HSG group. The tetrapeptide backbone (Phe-Lys-(D-Tyr)-Lys) contains a d-amino acid (D-Tyr) and the carboxyl group of the C-terminal lys is amidated.
(§1) The results from this analysis were compared with those of chemically linked hMN-14×679 (Fab′×Fab′) and BS1.5H (bispecific diabody). Nude mice bearing GW-39 (CEA positive) tumors were pre-targeted with BS14HP, BS1.5H or hMN-14×679. Initially, the bio-distribution was followed with ^131I-labeled bispecific agent. The tumor residence and blood clearance of ^131I-BS14HP is depicted in FIG. 7. As determined in preliminary experiments, the time interval between administration of bispecific targeting agent and of ^111In-IMP241 peptide is the amount of time required for the former to clear the blood to a concentration of 1% ID/g or less. […] IMP-241 (Immunomedics, Inc), a peptide containing two HSG groups and a DOTA moiety, was loaded with ^111Indium and injected in pre-targeted mice. The bio-distribution of the ^111In-IMP-241 was examined at 3 hours after injection (FIG. 8A) and the tumor/non-tumor ratios are shown in FIG. 8B.

[2] = in vivo; set-up: species or system nude mice; conditions: nude, mouse
Description: (§2) IMP-245 was prepared and labeled using standard techniques known in the art. See, for example, published application US20030198595 (now issued U.S. Pat. No. 7,138,103), which is hereby incorporated by reference in its entirety. The experiment used 3 groups of 15 mice, each of which was necropsied, and 1 group of 5 mice that was imaged. Three groups of mice were administered 6 μCi ^125I-hBS14 (40 μg, 5.0×10^−10 moles). In the last group (imaging group), 3 mice received unlabeled hBS14. The amount of ^99mTc-IMP-245 administered to all the mice was ˜40 μCi (92 ng, 5.0×10^−11 moles) for a bispecific:peptide ratio of 10:1. […] Due to differences in tumor growth rates, only 20 mice were initially available for administration of hBS14. Fifteen mice were used to fill out Group II while 5 mice were used for Group I. The remaining mice (including the imaged mice) were injected one week later. Not all the mice implanted with GW-39 tumors developed usable tumors and, therefore, Group I only had 10 mice and were sacrificed at 1 hr post-peptide injection and 24 hrs post-injection.

[3] = tested on: human colonic tumor (GW-39) xenograft; assay: in vivo; set-up: species or system nude mice; conditions: mouse
Description: as §2

[4] = tested on: WI2 IgG, an anti idiotypic antibody to hMN-14; assay: BIAcore WI2 molar binding ratio of bispecific protein captured on HSG sensorchip; set-up: species or system rat; conditions: protein bound to HSG sensorchip, then WI2; theoretical maximum 1.0 for two CEA binding sites
Description: The analysis step is as follows. Samples of the culture media were diluted 1:5 in EB buffer (150 mM NaCl; 50 μM EDTA; 0.005% surfactant P20; 10 mM HEPES, pH 7.4) and injected ([…]) over a high-density, HSG-coupled sensorchip in a BIAcoreX system. Following injection of the diluted media, EB containing 20 μg/ml of WI2 IgG, an anti idiotypic antibody to hMN-14, was injected ([…]) over the sensorchip to confirm bispecific binding. The initial binding slopes were used to quantitate yields. Seven of the nine zeocin resistant clones tested produced bispecific protein with a yield of up to 3 mg per liter of culture media.
The W12:BS14HP molar binding ratio can be derived by comparison of the response units (RU) attained from BS14HP binding to the HSG sensorchip with the further RU increase from W12 binding to BS14HP with normalization for the respective molecular weights. Several BS14HP preps were analyzed with the measured ratio ranging from 0.8-0.9. […]
If the W12 binding is allowed to approach saturation, the stoichiometry of the binding can be determined. […] As each increase in RU level is directly proportional to the mass bound, the WI2:bsAb molar binding ratio can be calculated using the formula (RUWI2/RUhBS14)×(MWhBS14/MWWI2). hBS14 was designed to be bivalent for CEA (and monovalent for HSG) and as such should bind W12 (also bivalent) with a 1:1 molar ratio. […]

[5] = Blood clearance of radioiodinated bispecific agents in GW-39 tumor-bearing nude mice; type: in vivo; conditions: 131I-labeled bispecific agent, preliminary experiments
Description: as §1

Molecule: NC(=O)[C@@H](CCCCNC(=O)CNC(=O)CCC(=O)NCCc1cnc[nH]1)NC(=O)[C@@H](Cc1ccc(O)cc1)NC(=O)[C@@H](CCCCNC(=O)CNC(=O)CCC(=O)NCCc1cnc[nH]1)NC(=O)[C@@H](Cc1ccccc1)NC(=O)CN1CCN(CC(=O)O)CCN(CC(=O)O)CCN(CC(=O)O)CC1 [IMP284] ({DOTA}-[dF][dK]([Gly-Suc-NH(2-(imidazol-4-yl)ethyl)])[dY][dK]([Gly-Suc-NH(2-(imidazol-4-yl)ethyl)])-NH2)
pretargeting experiments performed again with other peptides [1]: same results

Molecule: NC(=O)[C@@H](CCCCNC(=O)CNC(=O)CCC(=O)NCCc1c[nH]cn1)NC(=O)[C@@H](CCC(=O)O)NC(=O)[C@@H](CCCCNC(=O)CNC(=O)CCC(=O)NCCc1c[nH]cn1)NC(=O)[C@@H](Cc1ccc(O)cc1)NC(=O)CN1CCN(CC(=O)O)CCN(CC(=O)O)CCN(CC(=O)O)CC1 [IMP288] ({DOTA}-[dY][dK]([Gly-Suc-NH(2-(imidazol-4-yl)ethyl)])[dE][dK]([Gly-Suc-NH(2-(imidazol-4-yl)ethyl)])-NH2)
pretargeting experiments performed again with other peptides [1]: same results

Molecule: NC(=O)[C@H](CCCCNC(=O)[C@H](CS)NC(=O)C=NNC(N)=S)NC(=O)[C@H](CCCCNC(=O)CNC(=O)CCC(=O)NCCc1c[nH]cn1)NC(=O)[C@@H](Cc1ccc(O)cc1)NC(=O)[C@H](CCCCNC(=O)CNC(=O)CCC(=O)NCCc1c[nH]cn1)NC(=O)[C@H](Cc1ccccc1)NC(=O)CN1CCN(CC(=O)O)CCN(CC(=O)O)CCN(CC(=O)O)CC1 [IMP-245] ({DOTA}-FK([Gly-Suc-NH(2-(imidazol-4-yl)ethyl)])[dY]K([Gly-Suc-NH(2-(imidazol-4-yl)ethyl)])K([Cys-X1])-NH2; N-terminus and C-terminus assumed)
tissue uptake at 1 h [2]: 36.9 ± 6.42 %ID/g
tissue uptake at 24 h [2]: 3.81 ± 0.8 %ID/g
tissue uptake at 24 h ([2]; 92 ng): 3.71 ± 0.43 %ID/g
tissue uptake at 24 h ([2]; 92 ng, tumor uptake): 0.3 ± 0.08 %ID/g
tissue uptake at 4 h ([2]; tumor uptake): 15.9 ± 16.3 %ID/g
fold less peptide than hBS14 in the tumor [3]: 4.7 fold
fold more IMP-245 in the tumor versus hBS14 [3]: 2.4 fold
fold more IMP-245 than hBS14 in the tumors [3]: Approximately 2 fold
relative amount of actual signal in the tumors, fold less [3]: 13 fold
tumor uptake ([3]; nude, 4 h): 14.53±4.90 % ID/g

More lines, main results first:

pretargeting experiments performed again with other peptides [1]: same results
Molecule: C[C@@H](NC(=O)CN1CCN(CC(=O)O)CCN(CC(=O)O)CCN(CC(=O)O)CC1)C(=O)N[C@H](CCCCNC(=O)CNC(=O)CCC(=O)NCCc1cnc[nH]1)C(=O)N[C@H](CCC(=O)O)C(=O)N[C@H](CCCCNC(=O)CNC(=O)CCC(=O)NCCc1cnc[nH]1)C(N)=O [IMP281] ({DOTA}-[dA][dK]([Gly-Suc-NH(2-(imidazol-4-yl)ethyl)])[dE][dK]([Gly-Suc-NH(2-(imidazol-4-yl)ethyl)])-NH2)

WI2:bsAb molar binding ratio [4]: 0.8-0.9
B1: BS14HP: bispecific trivalent heterodimer (SEQ ID NO:1 and 2) from Pichia pastoris, two binding sites for CEA and one for HSG (antibody)
heavy: EAEAEFMEVQLVESGGDLVKPGGSLKLSCAASGFTFSIYTMSWLRQTPGKGLEWVATLSGDGDDIYYPDSVKGRFTISRDNAKNSLYLQMNSLRAEDTALYYCARVRLGDWDFDVWGQGTTVSVSSGGGGSDIQLTQSPSSLSASVGDRVTITCKASQDVGTSVAWYQQKPGKAPKLLIYWTSTRHTGVPSRFSGSGSGTDFTFTISSLQPEDIATYYCQQYSLYRSFGQGTKVEIKRLEGGGSEVQLVESGGGVVQPGRSLRLSCSASGFDFTTYWMSWVRQAPGKGLEWIGEIHPDSSTINYAPSLKDRFTISRDNAKNTLFLQMDSLRPEDTGVYFCASLYFGFPWFAYWGQGTPVTVSVDHHHHHH
light: EAEAEFDIQLTQSPSSLSASVGDRVTITCKASQDVGTSVAWYQQKPGKAPKLLIYWTSTRHTGVPSRFSGSGSGTDFTFTISSLQPEDIATYYCQQYSLYRSFGQGTKVEIKRGGGQFMEVQLVESGGGVVQPGRSLRLSCSASGFDFTTYWMSWVRQAPGKGLEWIGEIHPDSSTINYAPSLKDRFTISRDNAKNTLFLQMDSLRPEDTGVYFCASLYFGFPWFAYWGQGTPVTVSGGGGSDIVMTQSPSSLAVSPGERVTLTCKSSQSLFNSRTRKNYLGWYQQKPGQSPKLLIYWASTRESGVPDRFSGSGSGTDFTLTINSLQAEDVAVYYCTQVYYLCTFGAGTKLELKRLDHHHHHH
pre-targeting clearance time (time to clear the blood to 1% ID/g or less) [5]: 24 h
111In-IMP241 peptide specifically bound to the tumor, compared to mice pretargeted with BS1.5H or hMN14×679 [1]: approximately three-fold
